Test in all cases: Liquid growth assay
Settings in all cases: 30 °C

In one test the target is Actin [R335K] (Saccharomyces cerevisiae (strain ATCC 204508 / S288c), UniProt P60010, R335K). How it is done:
(§1) Saturated ACT1 wild type (WT) as well as engineered ACT1 R183K (R183K) and ACT1 R335K (R335K) cultures were adjusted to 10 OD600 and 3 uL of serial 1:3 dilutions spotted on YPD agar supplemented with indicated concentrations of Chivosazole F. Growth was scored after 3 days incubation at 30 °C.

A further test deals with Actin (Saccharomyces cerevisiae (strain ATCC 204508 / S288c), UniProt P60010). How it is done:
as §1

The target of a further test is Actin [R183K] (Saccharomyces cerevisiae (strain ATCC 204508 / S288c), UniProt P60010, R183K). On the procedure: as §1

SMILES strings stand for the structures. pIC50: −log10 of the molar value.

For the compound `COC1CC(O)/C=C/C=C/C=C\C(C)C(C(C)C(O)CC(C)O)OC(=O)\C=C/C=C/C=C\C(C)=C\C(C)C(O)/C=C\C=C\c2coc(n2)C1C` (centres undefined) [SCHEMBL1889389], the figures for the pIC50 against Actin [R335K], at Actin and against Actin [R183K] were 6.57, 6.85 and 6.42, respectively.
As to `C/C1=C/C(=O)O[C@@H]2C[C@@H](CC[C@H](C)/C=C\C=C\CC1)O[C@@](O)([C@@H]1CSC(=O)N1)C2` [LAT-A], the pIC50 on Actin [R335K] is 7.40; at Actin, 7.15; at Actin [R183K] it was 6.96.
As for `C/C1=C\[C@@H](C)[C@@H](C)OC(=O)C[C@H](c2ccc(O)cc2)NC(=O)[C@@H](Cc2c[nH]c3ccccc23)N(C)C(=O)[C@H](C)NC(=O)[C@@H](C)C1` [CHEBI:84382], the pIC50 against Actin [R335K] was 4.82; against Actin, 4.78; against Actin [R183K], 4.92.

By pIC50 is commonly meant −log10 of the IC50, conventionally taken in molar units. A high value points to a low IC50.

Values taken from BindingDB's records for doi:10.1021/acschembio.7b00385 (Novartis Pharma, 2017).
